# Source: patent publication US11377441B2, “Covalent inhibitors of KRAS” (Araxes Pharma LLC, priority 2017, dated 2022)
# Target: T1, KRAS G12C 1-169, his-tagged protein, GDP-loaded (Homo sapiens, UniProt P01116, G12C)
# T1 construct: KRAS G12C 1-169, his-tagged protein, GDP-loaded
# Assay: Biochemical assay: covalent modification of KRAS G12C measured by mass spectrometry (RapidFire/TOF or Q-Exactive)
# Assay type: binding
# Details: covalent binding to (modification of) KRAS G12C after a ten minute incubation period
# Outline: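 GDP-loaded KRAS G12C 1-169 (his-tagged) at 2 μM or 0.5 μM in 20 mM Hepes, 150 mM NaCl, 1 mM MgCl2, incubated with compound at 100, 30 or 10 μM at room temperature for 10 min, 30 min, 2 h or 24 h, then quenched with formic acid. Intact-protein LC-MS, deconvolved; percent modification from modified versus unmodified protein.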
row,SMILES,Binding %
1,"C=CC(=O)N1C[C@H](C)N(c2nc(OC[C@@H]3CCCN3C(C)C)nc3c(F)c(-c4c(C)ccc5[nH]nc(C6CC6)c45)c(Cl)cc23)C[C@H]1C [Compound 237, 1-((2R,5S)-4-(6-chloro-7-(3-cyclopropyl-5-methyl-1H-indazol-4-yl)-8-fluoro-2-(((S)-1-isopropylpyrrolidin-2-yl)methoxy)quinazolin-4-yl)-2,5-dimethylpiperazin-1-yl)prop-2-en-1-one]",++ (++ indicates binding activity from 50 to 80%)
2,"C=CC(=O)N1C[C@H](C)N(c2nc(OC[C@@H]3CCCN3C(C)C)nc3c(F)c(-c4c(C)ccc5cnn(C)c45)c(Cl)cc23)C[C@H]1C [Compound 238, 1-((2R,5S)-4-(6-chloro-7-(1,6-dimethyl-1H-indazol-7-yl)-8-fluoro-2-(((S)-1-isopropylpyrrolidin-2-yl)methoxy)quinazolin-4-yl)-2,5-dimethylpiperazin-1-yl)prop-2-en-1-one]",++ (++ indicates binding activity from 50 to 80%)
3,"C=CC(=O)N1C[C@H](C)N(c2nc(OC[C@@H]3CCCN3CC3CC3)nc3c(F)c(-c4c(C)ccc5cnn(C)c45)c(Cl)cc23)C[C@H]1C [Compound 239, 1-((2R,5S)-4-(6-chloro-2-(((S)-1-(cyclopropylmeth-yl)pyrrolidin-2-yl)methoxy)-7-(1,6-dimethyl-1H-indazol-7-yl)-8-fluoroquinazolin-4-yl)-2,5-dimethylpiperazin-1-yl)prop-2-en-1-one]",+++ (+++ indicates binding activity greater than 80%)
4,"C=CC(=O)N1C[C@H](C)N(c2nc(C#CCN(C)C)nc3c(F)c(-c4c(C)ccc5[nH]nc(C6CC6)c45)c(Cl)cc23)C[C@H]1C [Compound 240, 1-((2R,5S)-4-(6-chloro-7-(3-cyclopropyl-5-methyl-1H-indazol-4-yl)-2-(3-(dimethylamino)prop-1-ylnyl)-8-fluoroquinazolin-4-yl)-2,5-dimethylpiperazin-1-yl)prop-2-en-1-one]",+ (+ indicates binding activity greater than 0% and up to 50%)
5,"C=CC(=O)N1C[C@H](C)N(c2nc(OC[C@H]3CC(F)(F)CN3C)nc3c(F)c(-c4c(C)ccc5cnn(C)c45)c(Cl)cc23)C[C@H]1C [Compound 241, 1-((2R,5S)-4-(6-chloro-2-(((R)-4,4-difluoro-1-methylpyrrolidin-2-yl)methoxy)-7-(1,6-dimethyl-1H-indazol-7-yl)-8-fluoroquinazolin-4-yl)-2,5-dimethylpiperazin-1-yl)prop-2-en-1-one]",+ (+ indicates binding activity greater than 0% and up to 50%)
6,"C=CC(=O)N1C[C@H](C)N(c2nc(N3CC(C(N)=O)C3)nc3c(F)c(-c4c(C)ccc5cnn(C)c45)c(Cl)cc23)C[C@H]1C [Compound 244, 1-(4-((2S,5R)-4-acryloyl-2,5-dimethylpiperazin-1-yl)-6-chloro-7-(1,6-dimethyl-1H-indazol-7-yl)-8-fluoroquinazolin-2-yl)azetidine-3-carboxamide]",++ (++ indicates binding activity from 50 to 80%)
7,"C=CC(=O)N1C[C@H](C)N(c2nc(OC[C@@H]3CCCN3C(C)C)nc3c(F)c(-c4c(C)ccc5[nH]nc(C)c45)c(Cl)cc23)C[C@H]1C [Compound 247, 1-((2R,5S)-4-(6-chloro-7-(3,5-dimethyl-1H-indazol-4-yl)-8-fluoro-2-(((S)-1-isopropylpyrrolidin-2-yl)methoxy)quinazolin-4-yl)-2,5-dimethylpiperazin-1-yl)prop-2-en-1-one]",++ (++ indicates binding activity from 50 to 80%)
8,"C=CC(=O)N1C[C@H](C)N(c2nc(NC(C)=O)nc3c(F)c(-c4c(C)ccc5cnn(C)c45)c(Cl)cc23)C[C@H]1C [Compound 256, N-(4-((2S,5R)-4-acryloyl-2,5-dimethylpiperazin-1-yl)-6-chloro-7-(1,6-dimethyl-1H-indazol-7-yl)-8-fluoroquinazolin-2-yl)acetamide]",++ (++ indicates binding activity from 50 to 80%)
9,"C=CC(=O)N1C[C@H](C)N(c2nc(N3CC(C(N)=O)C3)nc3c(F)c(-c4c(C)ccc5[nH]nc(C6CC6)c45)c(Cl)cc23)C[C@H]1C [Compound 257, 1-(4-((2S,5R)-4-acryloyl-2,5-dimethylpiperazin-1-yl)-6-chloro-7-(3-cyclopropyl-5-methyl-1H-indazol-4-yl)-8-fluoroquinazolin-2-yl)azetidine-3-carboxamide]",++ (++ indicates binding activity from 50 to 80%)
10,"C=CC(=O)N1C[C@H](C)N(c2nc(C#CCOC)nc3c(F)c(-c4c(C)ccc5cnn(C)c45)c(Cl)cc23)C[C@H]1C [Compound 258, 1-((2R,5S)-4-(6-chloro-7-(1,6-dimethyl-1H-indazol-7-yl)-8-fluoro-2-(3-methoxyprop-1-ynyl)quinazolin-4-yl)-2,5-dimethylpiperazin-1-yl)prop-2-en-1-one]",+++ (+++ indicates binding activity greater than 80%)
11,"C=CC(=O)N1C[C@H](C)N(c2nc(NC(C)=O)nc3c(F)c(-c4c(C)ccc5[nH]nc(C6CC6)c45)c(Cl)cc23)C[C@H]1C [Compound 259, N-(4-((2S,5R)-4-acryloyl-2,5-dimethylpiperazin-1-yl)-6-chloro-7-(3-cyclopropyl-5-methyl-1H-indazol-4-yl)-8-fluoroquinazolin-2-yl)acetamide]",++ (++ indicates binding activity from 50 to 80%)
12,"C=CC(=O)N1C[C@H](C)N(c2nc(NC(=O)CN(C)C)nc3c(F)c(-c4c(C)ccc5cnn(C)c45)c(Cl)cc23)C[C@H]1C [Compound 260, N-(4-((2S,5R)-4-acryloyl-2,5-dimethylpiperazin-1-yl)-6-chloro-7-(1,6-dimethyl-1H-indazol-7-yl)-8-fluoroquinazolin-2-yl)-2-(dimethylamino)aceta-mide]",+++ (+++ indicates binding activity greater than 80%)
13,"C=CC(=O)N1C[C@H](C)N(c2nc(N3CC(N(C)C)C3)nc3c(F)c(-c4cccc5c4N(C)C(=O)C5)c(Cl)cc23)C[C@H]1C [Compound 262, 7-(4-((2S,5R)-4-acryloyl-2,5-dimethylpiperazin-1-yl)-6-chloro-2-(3-(dimethylamino)azetidin-1-yl)-8-fluoroquinazolin-7-yl)-1-methylindolin-2-one]",+ (+ indicates binding activity greater than 0% and up to 50%)
14,"C=CC(=O)N1C[C@H](C)N(c2nc(N3CC(N(C)C)C3)nc3c(F)c(-c4c(C)ccc5c4NC(=O)C5)c(Cl)cc23)C[C@H]1C [Compound 263, 7-(4-((2S,5R)-4-acryloyl-2,5-dimethylpiperazin-1-yl)-6-chloro-2-(3-(dimethylamino)azetidin-1-yl)-8-fluoroquinazolin-7-yl)-6-methylindolin-2-one]",+ (+ indicates binding activity greater than 0% and up to 50%)
15,"C=CC(=O)N1C[C@H](C)N(c2nc(OC3CC(N(C)C)C3)nc3c(F)c(-c4c(C)ccc5[nH]ncc45)c(Cl)cc23)C[C@H]1C (stereo partly drawn) [Compound 264, 1-((2R,5S)-4-(6-chloro-2-(3-(dimethylamino)cyclo-butoxy)-8-fluoro-7-(5-methyl-1H-indazol-4-yl)quinazolin-4-yl)-2,5-dimethylpiperazin-1-yl)prop-2-en-1-one]",+++ (+++ indicates binding activity greater than 80%)
16,"C=CC(=O)N1C[C@H](C)N(c2nc(N3CC(N(C)C)C3)nc3c(F)c(N4CCCc5ccccc54)c(Cl)cc23)C[C@H]1C [Compound 265, 1-((2R,5S)-4-(6-chloro-7-(3,4-dihydroquinolin-1(2H)-yl)-2-(3-(dimethylamino)azetidin-1-yl)-8-fluoroquinazolin-4-yl)-2,5-dimethylpiperazin-1-yl)prop-2-en-1-one]",++ (++ indicates binding activity from 50 to 80%)
17,"C=CC(=O)N1CCN(c2nc(N3CC(N(C)C)C3)nc3c(F)c(-c4c(C)ccc5cn[nH]c45)c(Cl)cc23)CC1CC#N (stereo not drawn) [Compound 266, 2-(1-acryloyl-4-(6-chloro-2-(3-(dimethylamino)azetidin-1-yl)-8-fluoro-7-(6-methyl-1H-indazol-7-yl)quinazolin-4-yl)piperazin-2-yl)acetonitrile]",++ (++ indicates binding activity from 50 to 80%)
18,"C=CC(=O)N1CCN(c2nc(N3CC(N(C)C)C3)nc3c(F)c(-c4c(C)ccc5[nH]ncc45)c(Cl)cc23)CC1CC#N (stereo not drawn) [Compound 267, 2-(1-acryloyl-4-(6-chloro-2-(3-(dimethyalmino)azetidin-1-yl)-8-fluoro-7-(5-methyl-1H-indazol-4-yl)quinazolin-4-yl)piperazin-2-yl)acetonitrile]",+++ (+++ indicates binding activity greater than 80%)
19,"C=CC(=O)N1CCN(c2nc(OC[C@@H]3CCCN3C)nc3c(F)c(-c4c(C)ccc5cn[nH]c45)c(Cl)cc23)CC1CC#N (stereo partly drawn) [Compound 268, 2-(1-acryloyl-4-(6-chloro-8-fluoro-7-(6-methyl-1H-indazol-7-yl)-2-(((S)-1-methylpyrrolidin-2-yl)methoxy)quinazolin-4-yl)piperazin-2-yl)acetonitrile]",+++ (+++ indicates binding activity greater than 80%)
20,"C=CC(=O)N1CCN(c2nc(N3CC(N(C)C)C3)nc3c(F)c(-c4c(C)ccc5cnn(C)c45)c(Cl)cc23)CC1CC#N (stereo not drawn) [Compound 269, 2-(1-acryloyl-4-(6-chloro-7-(1,6-dimethyl-1H-indazol-7-yl)-2-(3-(dimethylamino)azetidin-1-yl)-8-fluoroquinazolin-4-yl)piperazin-2-yl)acetonitrile]",+++ (+++ indicates binding activity greater than 80%)
21,"C=CC(=O)N1CCN(c2nc(N3CC(N(C)C)C3)nc3c(F)c(-c4c(C)ccc5[nH]nc(C)c45)c(Cl)cc23)CC1CC#N (stereo not drawn) [Compound 270, 2-(1-acryloyl-4-(6-chloro-7-(3,5-dimethyl-1H-indazol-4-yl)-2-(3-(dimethylamino)azetidin-1-yl)-8-fluoroquinazolin-4-yl)piperazin-2-yl)acetonitrile]",+++ (+++ indicates binding activity greater than 80%)
